We go through six compounds from ChEMBL document CHEMBL5724914, “Linking interpersonal differences in gut microbiota composition and drug biotransformation activity” (2024).

The conditions of data set [1]: human gut metagenome, 24 h, 2 µM.
The conditions of data set [2]: human gut metagenome, 24 h, 2 µM. The source holds these as a separate data set.
Data set [3] can be described thus: The drug is tested on WLS-007 corresponding to human gut metagenome with ENA study accession number: PRJEB37062 and ENA sample accession number: ERS12561742 for biotransformation under anaerobic condition. The drug concentrations were measured over 9 timepoints collected between 0 and 24 hours of incubation by liquid-chromatography-coupled mass spectrometry (LC–MS). The note with it: 2 µM.

The conditions of data set [4]: human gut metagenome, 24 h, 2 µM. The source holds these as a separate data set.
A short description of data set [5]: The drug is tested on Z-007 corresponding to rat gut metagenome with ENA study accession number: PRJEB37062 and ENA sample accession number: ERS12561807 for biotransformation under anaerobic condition. The drug concentrations were measured over 9 timepoints collected between 0 and 24 hours of incubation by liquid-chromatography-coupled mass spectrometry (LC–MS). Conditions: 2 µM.

The conditions of data set [6]: human gut metagenome, 24 h, 2 µM. This is another data set of the same source.
For data set [7] the following is noted: human gut metagenome, 24 h, 2 µM. This is another data set of the same source.
Data set [8] is described as follows: The drug is tested on Z-021 corresponding to metagenome with ENA study accession number: PRJEB37062 and ENA sample accession number: ERS12561820 for biotransformation under anaerobic condition. The drug concentrations were measured over 9 timepoints collected between 0 and 24 hours of incubation by liquid-chromatography-coupled mass spectrometry (LC–MS). Conditions: 2 µM.

The conditions of data set [9]: human gut metagenome, 24 h, 2 µM. The source holds these as a separate data set.
The nature of data set [10]: The drug is tested on Z-010 corresponding to metagenome with ENA study accession number: PRJEB37062 and ENA sample accession number: ERS12561810 for biotransformation under anaerobic condition. The drug concentrations were measured over 9 timepoints collected between 0 and 24 hours of incubation by liquid-chromatography-coupled mass spectrometry (LC–MS). Conditions: 2 µM.

The conditions of data set [11]: human gut metagenome, 24 h, 2 µM. This is another data set of the same source.
The conditions of data set [12]: human gut metagenome, 24 h, 2 µM. This is another data set of the same source.
The conditions of data set [13]: human gut metagenome, 24 h, 2 µM. This is another data set of the same source.
Data set [14] can be described thus: The drug is tested on Z-022 corresponding to mouse gut metagenome with ENA study accession number: PRJEB37062 and ENA sample accession number: ERS12561821 for biotransformation under anaerobic condition. The drug concentrations were measured over 9 timepoints collected between 0 and 24 hours of incubation by liquid-chromatography-coupled mass spectrometry (LC–MS). The note with it: 2 µM.

For data set [15] the following is noted: human gut metagenome, 24 h, 2 µM. This is another data set of the same source.
Data set [16] is described as follows: The drug is tested on Z-027 corresponding to metagenome with ENA study accession number: PRJEB37062 and ENA sample accession number: ERS12561826 for biotransformation under anaerobic condition. The drug concentrations were measured over 9 timepoints collected between 0 and 24 hours of incubation by liquid-chromatography-coupled mass spectrometry (LC–MS). The note with it: 2 µM.

Data set [17] can be described thus: The drug is tested on WLS-350 corresponding to human gut metagenome with ENA study accession number: PRJEB37062 and ENA sample accession number: ERS12561789 for biotransformation under anaerobic condition. The drug concentrations were measured over 9 timepoints collected between 0 and 24 hours of incubation by liquid-chromatography-coupled mass spectrometry (LC–MS). Conditions: 2 µM.

For data set [18] the following is noted: human gut metagenome, 24 h, 2 µM. The source holds these as a separate data set.
A short description of data set [19]: The drug is tested on Z-023 corresponding to metagenome with ENA study accession number: PRJEB37062 and ENA sample accession number: ERS12561822 for biotransformation under anaerobic condition. The drug concentrations were measured over 9 timepoints collected between 0 and 24 hours of incubation by liquid-chromatography-coupled mass spectrometry (LC–MS). Conditions: 2 µM.

The conditions of data set [20]: human gut metagenome, 24 h, 2 µM. The source holds these as a separate data set.
Also: call rule not given here.

On to `Cc1ccc(S(=O)(=O)NC(=O)NN2CC3CCCC3C2)cc1` (stereo not given) [GLICLAZIDE], for which the “Bacterial Biotransformation” value in [1] was “Compound metabolized”; in data set [2], “Compound metabolized”; in [3], “Compound NOT metabolized”; in [4], “Compound metabolized”; in data set [5], “Compound NOT metabolized”; in [6], “Compound metabolized”. Besides, the “Bacterial Biotransformation” value in data set [7] was “Compound metabolized”; in data set [8] it was “Compound NOT metabolized”; in data set [9] it was “Compound metabolized”; in data set [10], “Compound metabolized”; in data set [11] it was “Compound metabolized”; in data set [12], “Compound NOT metabolized”. The “Bacterial Biotransformation” value in data set [13], in data set [14], in data set [15], in [16], in [17] and in data set [18] was “Compound metabolized” in each case. For the same compound, the “Bacterial Biotransformation” value in data set [19] and in [20] was “Compound metabolized” in each case.

Consider `COC1=CC(=O)C[C@@H](C)[C@]12Oc1c(Cl)c(OC)cc(OC)c1C2=O` [GRISEOFULVIN], for which the “Bacterial Biotransformation” value was “Compound metabolized” in data set [1]; “Compound NOT metabolized” in data set [2]; “Compound metabolized” in [3]; “Compound metabolized” in [4]; “Compound metabolized” in data set [5]; “Compound NOT metabolized” in data set [6]. Besides, the “Bacterial Biotransformation” value in [7] was “Compound metabolized”; in data set [8], “Compound metabolized”; in [9], “Compound NOT metabolized”; in data set [10], “Compound metabolized”; in [11], “Compound NOT metabolized”; in data set [12], “Compound metabolized”. In addition, the “Bacterial Biotransformation” value in data set [13] was “Compound metabolized”; in data set [14] it was “Compound metabolized”; in data set [15] it was “Compound metabolized”; in data set [16], “Compound metabolized”; in [17], “Compound NOT metabolized”; in data set [18], “Compound metabolized”. For the same compound, the “Bacterial Biotransformation” value is on record as “Compound metabolized” in data set [19] and “Compound NOT metabolized” in [20].

In the case of `N#Cc1ccc(C(c2ccc(C#N)cc2)n2cncn2)cc1` [LETROZOLE], the “Bacterial Biotransformation” value in [1], in data set [2], in data set [3], in data set [4], in [5] and in data set [6] was “Compound NOT metabolized” in each case. Besides, the “Bacterial Biotransformation” value is given as “Compound NOT metabolized” in data set [7]; “Compound metabolized” in data set [8]; “Compound NOT metabolized” in data set [9]; “Compound NOT metabolized” in [10]; “Compound metabolized” in data set [11]; “Compound NOT metabolized” in data set [12]. In addition, the “Bacterial Biotransformation” value in data set [13] is reported as “Compound NOT metabolized”; in data set [14] it was “Compound metabolized”; in data set [15], “Compound NOT metabolized”; in data set [16], “Compound NOT metabolized”; in [17], “Compound NOT metabolized”; in [18], “Compound NOT metabolized”. The “Bacterial Biotransformation” value in data set [19] is recorded as “Compound metabolized”; in [20], “Compound NOT metabolized”.

Take `CC(Oc1c(Cl)cccc1Cl)C1=NCCN1` (stereo not given) [LOFEXIDINE]: the “Bacterial Biotransformation” value in [1] is given as “Compound NOT metabolized”; in [2], “Compound NOT metabolized”; in data set [3] it was “Compound metabolized”; in data set [4], “Compound NOT metabolized”; in data set [5], “Compound NOT metabolized”; in [6], “Compound NOT metabolized”. Besides, the “Bacterial Biotransformation” value in data set [7] is “Compound metabolized”; in [8], “Compound NOT metabolized”; in data set [9] it was “Compound metabolized”; in [10] it was “Compound NOT metabolized”; in [11] it was “Compound NOT metabolized”; in [12], “Compound NOT metabolized”. Further, the “Bacterial Biotransformation” value in data set [13] is “Compound NOT metabolized”; in [14], “Compound NOT metabolized”; in [15] it was “Compound NOT metabolized”; in [16] it was “Compound NOT metabolized”; in data set [17] it was “Compound NOT metabolized”; in data set [18] it was “Compound metabolized”. Also, the “Bacterial Biotransformation” value in [19] and in [20] was “Compound NOT metabolized” each time.

For `CN(C)C(=O)C(CCN1CCC(O)(c2ccc(Cl)cc2)CC1)(c1ccccc1)c1ccccc1` [LOPERAMIDE], the “Bacterial Biotransformation” value in data set [1] is given as “Compound metabolized”; in [2] it was “Compound metabolized”; in data set [3], “Compound metabolized”; in [4], “Compound metabolized”; in data set [5], “Compound NOT metabolized”; in data set [6], “Compound metabolized”. In addition, the “Bacterial Biotransformation” value in [7] is recorded as “Compound metabolized”; in data set [8] it was “Compound NOT metabolized”; in [9], “Compound metabolized”; in data set [10] it was “Compound metabolized”; in data set [11], “Compound metabolized”; in data set [12] it was “Compound metabolized”. Besides, the “Bacterial Biotransformation” value in [13], in [14], in [15], in data set [16], in [17] and in data set [18] was “Compound metabolized” each time. Besides, the “Bacterial Biotransformation” value in [19] and in data set [20] was “Compound metabolized” in each case.

For the compound `CCCCc1nc(Cl)c(CO)n1Cc1ccc(-c2ccccc2-c2nn[nH]n2)cc1` [LOSARTAN], the “Bacterial Biotransformation” value was “Compound NOT metabolized” in data set [1]; “Compound metabolized” in data set [2]; “Compound metabolized” in [3]; “Compound metabolized” in data set [4]; “Compound NOT metabolized” in data set [5]; “Compound metabolized” in [6]. In addition, the “Bacterial Biotransformation” value in data set [7] is reported as “Compound metabolized”; in data set [8], “Compound NOT metabolized”; in data set [9], “Compound metabolized”; in data set [10], “Compound NOT metabolized”; in [11], “Compound metabolized”; in data set [12], “Compound metabolized”. The “Bacterial Biotransformation” value was “Compound metabolized” in [13]; “Compound NOT metabolized” in data set [14]; “Compound metabolized” in data set [15]; “Compound NOT metabolized” in data set [16]; “Compound metabolized” in data set [17]; “Compound metabolized” in [18]. In addition, the “Bacterial Biotransformation” value in data set [19] and in [20] was “Compound metabolized” throughout.
